Here are results for 3 molecules from publication PMC4098866 (Bioscience Reports, 2012).

Where “and” joins values, the source holds several entries; their conditions need not be identical. Equal values may be shown once. Read-outs that look alike come from different tables or passages of the source.

Experiment [1] concerns the target T1, RPSA-(2–295) (Mus musculus, UniProt P14206). The experiment can be described thus: Fluorimetric titration of RPSA derivative with EGCG. Type of experiment: binding, murine.
Experiment [2] addresses T2, RPSA-(2–220) (Mus musculus, UniProt P14206). The experiment is described as above. Particulars: read-out: KD(EGCG); 25°C, PBS, equilibrium in solution, spectrofluorimetry. Type of experiment: binding, murine.
For experiment [3], the target named is T3, RPSA-(2–209) (Mus musculus, UniProt P14206). Described as above. Type of experiment: binding, murine.
The target in experiment [4] is T4, RPSA-(210–295) (Mus musculus, UniProt P14206). The description is as above. Type of experiment: binding, murine. Conditions: 25°C.
The target of experiment [5] is T5, RPSA-(225–295) (Mus musculus, UniProt P14206). The experiment is described as above. Type of experiment: binding, murine. Particulars: 25°C.
Experiment [6] concerns the target RPSA-(2–209) W176A (Mus musculus, UniProt P14206, W176A). Description: Fluorimetric titration of mutant RPSA-. It counts as binding, murine.
The target in experiment [7] is RPSA-(2–209) W195A (Mus musculus, UniProt P14206, W195A). The experiment can be described thus: Fluorimetric titration of mutant RPSA-. Type of experiment: binding, murine.
The target in experiment [8] is N-domain of RPSA (Mus musculus, UniProt P14206). The experiment can be described thus: Summary of ligand binding functions of RPSA domains. Conditions: read-out: KD (dissociation constants), N-domain; rounded value of the Abstract. Set-up: species or system murine.
In experiment [9] the test system is 67LR form of RPSA, purified from human cancer cells. Particulars: 25°C, surface plasmon resonance; cited from earlier work. (In general: In SPR one partner is held on a chip, and binding of the other changes the refractive index at the surface.)
For experiment [10], the target named is T1, RPSA-(2–295). Description: Indirect ELISA, capture of heparin by immobilized RPSA derivative. Type of experiment: binding, murine. Conditions: 25°C. (In an ELISA, binding on a coated surface is turned into a signal by an enzyme label.)
Experiment [11] addresses T2, RPSA-(2–220). The description is as above. It counts as binding, murine. Conditions: 25°C, half-saturation, listed as Heparin.
Experiment [12] concerns the target T3, RPSA-(2–209). The description is as above. Particulars: 25°C, half-saturation. It counts as binding, murine.
For experiment [13], the target named is T4, RPSA-(210–295). Described as above. It counts as binding, murine. Particulars: 25°C.
Experiment [14] addresses T5, RPSA-(225–295). The experiment is described as above. It counts as binding, murine. Particulars: 25°C.
Experiment [15] has as its target capture of laminin by immobilized RPSA-(2–220) (Mus musculus, UniProt P14206). Type of experiment: binding, murine. Particulars: EC50 smaller than K1/2.
For experiment [16], the target named is interaction between RPSA-(225–295) and laminin (Mus musculus, UniProt P02468+P02469+P19137). Description: Competition ELISA, inhibition constant Ki of heparin. Conditions: read-out: constant of inhibition (Ki); 25°C, buffer C, laminin 5 μg/ml, immobilized RPSA-(225–295). It counts as binding, murine.
In experiment [17] the target is T1, RPSA-(2–295). The experiment can be described thus: Competition ELISA, KD between laminin and RPSA derivative. It counts as binding, murine.
The target in experiment [18] is T2, RPSA-(2–220). The experiment is described as above. Type of experiment: binding, murine. Particulars: read-out: KD(Laminin), 25°C, buffer C, equilibrium in solution.
Experiment [19] concerns the target T3, RPSA-(2–209). The description is as above. Particulars: read-out: KD(Laminin), 25°C, buffer C, equilibrium in solution. Type of experiment: binding, murine.
Experiment [20] addresses T4, RPSA-(210–295). The experiment is described as above. Type of experiment: binding, murine. Conditions: read-out: KD(Laminin), 25°C, buffer C, equilibrium in solution.
The target in experiment [21] is T5, RPSA-(225–295). The description is as above. It counts as binding, murine. Particulars: read-out: KD(Laminin), 25°C, buffer C, equilibrium in solution.
In experiment [22] the target is C-domain of RPSA (Mus musculus, UniProt P14206). Description: Summary of ligand binding functions of RPSA domains. Set-up: species or system murine. Conditions: read-out: KD (dissociation constants), C-domain; rounded value of the Abstract.
Experiment [23] has as its target 67LR. Conditions: cell membrane, denatured, SPRadio-L, cited from earlier work.
Experiment [24] has as its target RPSA 1–220. Conditions: 1–220, E. coli, native, Ind. ELISA, 37 °C; cited from earlier work.
The target in experiment [25] is RPSA 1–295. Particulars: 1–295, E. coli, native, Ind. ELISA, 37 °C; cited from earlier work.
Experiment [26] deals with RPSA 161–180 (synthetic peptide G). Particulars: SPRadio-L, 4 °C; cited from earlier work.
Setting [27] is: read-out: KD(EGCG), 25°C, PBS, equilibrium in solution, spectrofluorimetry.
[28] abbreviates: uncorrected fluorescence, consistent with tryptophanamide control.

Take `O=C(O[C@@H]1Cc2c(O)cc(O)cc2O[C@@H]1c1cc(O)c(O)c(O)c1)c1cc(O)c(O)c(O)c1` [EGCG, (−)-epigallocatechin-3-gallate]: the “KD of EGCG, full-length RPSA-(2–295) relative to N-domain” value in experiment [1] (higher for full-length) turned out to be 4 fold. Further, the equilibrium dissociation constant (Kd) (in general, a measure of binding affinity in units of concentration) in experiment [1] (setting [27]) came out at 399 ± 101 nM; in experiment [2], 130 ± 37 nM; in experiment [3] (setting [27]), 99 ± 7 nM; in [6] (read-out: KD (EGCG), 25°C, W176A mutant of RPSA-(2–209)) it was 186 ± 42 nM; in [7] (read-out: KD (EGCG), 25°C, W195A mutant of RPSA-(2–209)) it was 196 ± 54 nM; in [8], 100 nM. Also, the “KD of EGCG with RPSA-(2–209) relative to literature KD with 67LR” value in experiment [3] (higher than 39.9 nM of ref 46) turned out to be 2.5 fold. Besides, the “EGCG binding (in words)” value in [4] (spectrofluorimetry) and in experiment [5] (spectrofluorimetry) was “did not bind” in each case. Also, the figures for the “[EGCG]1/2 (concentration of half-absorption, Beer's law fitted to F)” value in experiment [4] (setting [28]) and in experiment [5] (setting [28]) were 48 µM and 43 µM, respectively. The “decrease of free energy of interaction (ΔΔG) with EGCG” value in [6] (W176A vs parental RPSA-(2–209)) and in experiment [7] (W195A vs parental RPSA-(2–209)) was 0.4 ± 0.1 kcal/mol throughout. Also, the “KD (EGCG and 67LR), ratio kd/ka” value in [9] is 39.9 nM.
In the case of heparin sodium salt, the “heparin binding (in words)” value in experiment [10], in experiment [13] and in [14] was “did not bind” throughout. In addition, the “K1/2(Heparin)” value is “≫4 μM” in experiment [10] (half-saturation); 4.4 µM and 4.36 ± 0.28 µM in [11]; 1.43 µM in [12]; 1.43 ± 0.06 µM in experiment [12] (listed as Heparin); “≫2 μM” in [13] (half-saturation); “≫2 μM” in experiment [14] (half-saturation). Further, the “EC50 relative to K1/2 of heparin for RPSA-(2–220)” value in [15] came out at 130 fold. The Ki – broadly, a measure of affinity in units of concentration, obtained from inhibition or displacement – in experiment [16] amounted to 16.1 ± 0.7 nM.
Consider “laminin: laminin from mouse EHS (Engelbreth-Holm-Swarm) sarcoma, component of the extracellular matrix”, for which the “KD of laminin, full-length RPSA-(2–295) relative to N- or C-domain” value in experiment [17] (higher for full-length) turned out to be 2 fold. For the same molecule, the dissociation constant (Kd) in [17] (read-out: KD(Laminin), 25°C, buffer C, equilibrium in solution, competition ELISA) came to 666 ± 33 nM; in experiment [18] it was 691 ± 98 nM; in experiment [19], 273 ± 37 nM; in experiment [20], 374 ± 54 nM; in experiment [21] it was 344 ± 50 nM; in experiment [8], 300 nM. Besides, the Kd in experiment [22] is 300 nM; in experiment [23] (4 °C) it was 2 nM; in experiment [23] (20 °C), 2 nM; in experiment [24] it was 1700 nM; in experiment [25] it was 700 nM; in experiment [26], 52 nM.
